Measurements published in publication PMC5218480 (PLoS ONE, 2017).

Test system: MV-4-11 cells
Test: Gene expression microarray analysis (Affymetrix PrimeView) and GSEA
Assay type: cell-based, human
Details: gene C12orf56; ACY-1035 1 mM; LIST F

Nc1ccc(-c2cccs2)cc1NC(=O)c1ccc2c(c1)cc(C1CC1)n2CCN1CCOCC1 [ACY-1035]
RFU, C12orf56 (ProbeSet 11735607_a_at): 71.19 RFU
